Test results reported in ChEMBL document CHEMBL5210307, “Affinity Biochemical Literature for EUbOPEN Chemogenomics Library wave 3” (2023).

Assays:
[1] = target: T1, Histone acetyltransferase p300 (Homo sapiens, UniProt Q09472)
[2] = target: Tyrosine-protein kinase Mer (Homo sapiens, UniProt Q12866)
Cannabinoid receptor 1 = Cannabinoid receptor 1 (Homo sapiens, UniProt P21554); test: Affinity Biochemical interaction (Radioligand binding assay (CNR1, inverse agonism)) EUB0000316b CNR1; set-up: mode of action Negative control for MRL-650, recommended concentration 1 uM
[3] = target: RAC-alpha serine/threonine-protein kinase (Homo sapiens, UniProt P31749); test: Affinity Biochemical interaction (HTFR assay) EUB0000721a AKT1
[4] = target: Protein farnesyltransferase subunit beta (Homo sapiens, UniProt P49356); test: Affinity Biochemical interaction (Scintillation proximity assay (SPA)) EUB0000736a FNTB; set-up: mode of action Negative control for ABT-100, recommended concentration 1 uM
Integrin alpha-L = Integrin alpha-L (Homo sapiens, UniProt P20701); test: Affinity Biochemical interaction (ITGAL binding assay (inhibition of LFA-1 binding to ICAM-1)) EUB0000549a ITGAL; set-up: mode of action Negative control for BI-1950, recommended concentration 100 nM
[5] = target: Transient receptor potential cation channel subfamily A member 1 (Homo sapiens, UniProt O75762); test: Affinity Biochemical interaction (FLIPR-based Ca2+ assay (activated by 30 µM AITC)) EUB0000547a TRPA1; set-up: mode of action Negative control for A-079, recommended concentration 1 uM
[6] = target: Peripheral plasma membrane protein CASK (Homo sapiens, UniProt O14936); test: Affinity Biochemical interaction (Isothermal titration calorimetry (ITC)) EUB0000723a CASK; set-up: mode of action Inhibitor, recommended concentration 1 uM
[7] = Affinity Biochemical interaction (FLIPR assay) EUB0000337aCl P2RY14
[8] = target: Alpha-1D adrenergic receptor (Homo sapiens, UniProt P25100); test: Affinity Biochemical interaction (Binding assay) EUB0000300bCl ADRA1D; set-up: mode of action Antagonist, recommended concentration 1 uM
Collagenase 3 = Collagenase 3 (Homo sapiens, UniProt P45452); test: Affinity Biochemical interaction (FRET assay) EUB0000727a MMP13; set-up: mode of action Negative control for BI-4394, recommended concentration 100 nM
Protein AF-9 = target: T2, Protein AF-9 (Homo sapiens, UniProt P42568); test: Affinity Biochemical interaction (HTRF-based inhibition assay) EUB0000732a MLLT3; set-up: mode of action Negative control for PFI-6, recommended concentration 1 uM
T2 sequence (P42568 whole entry): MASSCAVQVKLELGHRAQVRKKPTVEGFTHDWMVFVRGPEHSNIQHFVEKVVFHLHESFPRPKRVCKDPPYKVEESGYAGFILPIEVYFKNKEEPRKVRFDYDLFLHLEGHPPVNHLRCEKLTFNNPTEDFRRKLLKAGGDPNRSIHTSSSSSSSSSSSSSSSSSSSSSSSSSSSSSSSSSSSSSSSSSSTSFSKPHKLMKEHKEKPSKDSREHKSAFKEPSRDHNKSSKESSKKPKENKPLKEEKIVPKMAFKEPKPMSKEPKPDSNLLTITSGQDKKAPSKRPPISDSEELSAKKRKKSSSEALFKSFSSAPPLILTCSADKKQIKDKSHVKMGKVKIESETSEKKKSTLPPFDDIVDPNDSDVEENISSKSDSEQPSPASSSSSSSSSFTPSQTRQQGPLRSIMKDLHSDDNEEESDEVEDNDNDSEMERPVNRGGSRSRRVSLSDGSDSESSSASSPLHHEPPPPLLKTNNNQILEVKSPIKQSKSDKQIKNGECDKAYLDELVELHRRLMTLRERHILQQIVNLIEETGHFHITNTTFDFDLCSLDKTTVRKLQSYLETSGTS

Protein ENL = Protein ENL (Homo sapiens, UniProt Q03111); test: Affinity Biochemical interaction (HTRF-based inhibition assay) EUB0000732a MLLT1; set-up: mode of action Negative control for PFI-6, recommended concentration 1 uM
[9] = target: T1, Histone acetyltransferase p300; test: Affinity Biochemical interaction (TR-FRET assay (BHC domains)) EUB0000326a EP300
[10] = target: Transient receptor potential cation channel subfamily M member 8 (Homo sapiens, UniProt Q7Z2W7); test: Affinity Biochemical interaction (Enzymatic assay) EUB0000546a TRPM8; set-up: mode of action Negative control for PF-05105679, recommended concentration 1 uM
[11] = target: Methionine aminopeptidase 2 (Homo sapiens, UniProt P50579); test: Affinity Biochemical interaction (Biochemical activity assay (addition of Mn)) EUB0000303b METAP2; set-up: mode of action Inhibitor, recommended concentration 1 uM
Angiopoietin-1 receptor = Angiopoietin-1 receptor (Homo sapiens, UniProt Q02763); test: Affinity Biochemical interaction (KdELECT (DiscoverX)) EUB0000703a TEK; set-up: mode of action Negative control for BAY-826, recommended concentration 100 nM
[12] = target: Hepatocyte growth factor receptor (Homo sapiens, UniProt P08581); test: Affinity Biochemical interaction (Homogeneous Time Resolved Fluorescence Assay) EUB0000293b MET; set-up: mode of action Inhibitor, recommended concentration 1 uM

T1 sequence (Q09472 whole entry): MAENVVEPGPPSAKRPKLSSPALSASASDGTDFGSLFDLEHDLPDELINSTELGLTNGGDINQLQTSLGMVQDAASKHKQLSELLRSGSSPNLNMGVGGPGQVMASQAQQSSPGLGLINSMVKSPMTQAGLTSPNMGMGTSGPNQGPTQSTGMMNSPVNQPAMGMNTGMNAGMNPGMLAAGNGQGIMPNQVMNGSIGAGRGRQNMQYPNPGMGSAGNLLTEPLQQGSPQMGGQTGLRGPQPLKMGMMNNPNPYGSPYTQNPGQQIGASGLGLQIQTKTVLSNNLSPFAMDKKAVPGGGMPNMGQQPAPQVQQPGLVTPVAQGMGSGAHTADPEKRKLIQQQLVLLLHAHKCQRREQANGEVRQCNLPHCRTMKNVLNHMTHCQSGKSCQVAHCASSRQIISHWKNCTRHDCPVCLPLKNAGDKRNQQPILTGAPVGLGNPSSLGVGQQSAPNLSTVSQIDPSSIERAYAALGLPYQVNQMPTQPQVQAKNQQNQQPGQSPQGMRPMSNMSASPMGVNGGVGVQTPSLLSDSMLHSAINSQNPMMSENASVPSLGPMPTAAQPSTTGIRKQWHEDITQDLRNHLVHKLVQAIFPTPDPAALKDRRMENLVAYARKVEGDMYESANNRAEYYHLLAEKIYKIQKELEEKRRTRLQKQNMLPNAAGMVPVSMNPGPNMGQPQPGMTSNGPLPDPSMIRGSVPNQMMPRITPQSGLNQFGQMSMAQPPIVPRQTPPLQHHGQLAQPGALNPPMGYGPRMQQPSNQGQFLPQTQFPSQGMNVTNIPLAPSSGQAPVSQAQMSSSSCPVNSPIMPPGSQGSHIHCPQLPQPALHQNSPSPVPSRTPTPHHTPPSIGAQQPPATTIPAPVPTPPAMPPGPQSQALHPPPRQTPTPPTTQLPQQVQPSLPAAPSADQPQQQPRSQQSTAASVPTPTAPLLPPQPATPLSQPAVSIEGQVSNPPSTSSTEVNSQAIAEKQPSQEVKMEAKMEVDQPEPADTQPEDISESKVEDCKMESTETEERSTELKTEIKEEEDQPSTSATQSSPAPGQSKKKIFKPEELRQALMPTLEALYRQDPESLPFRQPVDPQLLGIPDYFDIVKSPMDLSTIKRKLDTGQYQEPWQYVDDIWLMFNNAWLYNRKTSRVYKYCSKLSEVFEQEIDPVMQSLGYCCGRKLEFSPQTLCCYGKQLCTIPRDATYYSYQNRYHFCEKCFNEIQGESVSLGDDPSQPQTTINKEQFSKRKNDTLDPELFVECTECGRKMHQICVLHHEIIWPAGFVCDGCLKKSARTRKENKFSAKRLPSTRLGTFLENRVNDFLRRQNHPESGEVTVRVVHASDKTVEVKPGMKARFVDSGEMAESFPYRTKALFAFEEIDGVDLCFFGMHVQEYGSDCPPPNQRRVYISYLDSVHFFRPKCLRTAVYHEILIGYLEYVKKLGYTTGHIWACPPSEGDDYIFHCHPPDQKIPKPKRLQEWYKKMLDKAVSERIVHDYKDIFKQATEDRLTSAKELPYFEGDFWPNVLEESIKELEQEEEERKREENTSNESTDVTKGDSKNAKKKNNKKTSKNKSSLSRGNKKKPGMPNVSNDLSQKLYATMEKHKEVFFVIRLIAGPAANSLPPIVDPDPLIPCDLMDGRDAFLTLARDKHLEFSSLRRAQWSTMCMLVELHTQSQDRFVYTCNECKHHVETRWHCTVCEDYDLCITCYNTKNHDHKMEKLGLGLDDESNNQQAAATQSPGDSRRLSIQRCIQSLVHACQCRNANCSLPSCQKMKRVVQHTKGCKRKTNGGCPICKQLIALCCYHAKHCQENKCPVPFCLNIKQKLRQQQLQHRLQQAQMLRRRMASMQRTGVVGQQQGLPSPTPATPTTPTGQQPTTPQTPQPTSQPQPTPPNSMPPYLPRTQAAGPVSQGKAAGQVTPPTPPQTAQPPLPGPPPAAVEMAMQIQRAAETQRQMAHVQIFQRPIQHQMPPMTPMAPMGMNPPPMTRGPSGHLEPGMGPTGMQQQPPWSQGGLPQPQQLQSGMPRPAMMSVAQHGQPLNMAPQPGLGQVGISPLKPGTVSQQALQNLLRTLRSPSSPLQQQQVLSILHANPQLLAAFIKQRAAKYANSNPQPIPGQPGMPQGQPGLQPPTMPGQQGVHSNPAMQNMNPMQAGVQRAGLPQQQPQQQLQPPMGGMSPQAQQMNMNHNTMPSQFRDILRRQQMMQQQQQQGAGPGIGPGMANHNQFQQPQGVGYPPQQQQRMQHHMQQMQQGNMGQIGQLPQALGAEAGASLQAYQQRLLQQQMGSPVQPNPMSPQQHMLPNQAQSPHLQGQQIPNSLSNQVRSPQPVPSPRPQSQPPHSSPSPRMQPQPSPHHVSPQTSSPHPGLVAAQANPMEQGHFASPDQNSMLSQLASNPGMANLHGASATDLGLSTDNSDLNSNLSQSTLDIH
Chain of Peripheral plasma membrane protein CASK (O14936 whole entry): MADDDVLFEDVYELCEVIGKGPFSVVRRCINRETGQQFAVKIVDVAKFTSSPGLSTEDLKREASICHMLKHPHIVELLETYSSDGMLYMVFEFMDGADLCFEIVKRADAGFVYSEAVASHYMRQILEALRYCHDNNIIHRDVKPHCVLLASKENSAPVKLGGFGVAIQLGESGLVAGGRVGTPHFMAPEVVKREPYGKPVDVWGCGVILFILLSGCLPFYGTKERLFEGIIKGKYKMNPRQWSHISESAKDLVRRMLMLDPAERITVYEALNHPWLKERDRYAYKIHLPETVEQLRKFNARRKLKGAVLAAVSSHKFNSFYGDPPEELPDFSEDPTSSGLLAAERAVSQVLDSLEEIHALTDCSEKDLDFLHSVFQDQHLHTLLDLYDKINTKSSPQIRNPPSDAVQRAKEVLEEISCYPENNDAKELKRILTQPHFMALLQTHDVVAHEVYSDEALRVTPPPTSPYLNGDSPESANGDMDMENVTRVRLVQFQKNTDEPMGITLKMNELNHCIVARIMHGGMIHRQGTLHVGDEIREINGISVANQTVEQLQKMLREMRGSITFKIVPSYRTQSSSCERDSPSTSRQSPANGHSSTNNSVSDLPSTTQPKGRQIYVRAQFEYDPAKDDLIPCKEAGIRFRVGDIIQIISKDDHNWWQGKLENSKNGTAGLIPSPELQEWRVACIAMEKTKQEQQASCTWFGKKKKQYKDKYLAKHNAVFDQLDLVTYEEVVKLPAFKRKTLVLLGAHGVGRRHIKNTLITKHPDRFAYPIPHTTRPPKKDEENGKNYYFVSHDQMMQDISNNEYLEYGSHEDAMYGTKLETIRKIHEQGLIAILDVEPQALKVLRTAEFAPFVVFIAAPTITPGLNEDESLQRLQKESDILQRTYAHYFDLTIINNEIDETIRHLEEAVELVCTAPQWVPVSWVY
Chain of Cannabinoid receptor 1 (P21554 whole entry): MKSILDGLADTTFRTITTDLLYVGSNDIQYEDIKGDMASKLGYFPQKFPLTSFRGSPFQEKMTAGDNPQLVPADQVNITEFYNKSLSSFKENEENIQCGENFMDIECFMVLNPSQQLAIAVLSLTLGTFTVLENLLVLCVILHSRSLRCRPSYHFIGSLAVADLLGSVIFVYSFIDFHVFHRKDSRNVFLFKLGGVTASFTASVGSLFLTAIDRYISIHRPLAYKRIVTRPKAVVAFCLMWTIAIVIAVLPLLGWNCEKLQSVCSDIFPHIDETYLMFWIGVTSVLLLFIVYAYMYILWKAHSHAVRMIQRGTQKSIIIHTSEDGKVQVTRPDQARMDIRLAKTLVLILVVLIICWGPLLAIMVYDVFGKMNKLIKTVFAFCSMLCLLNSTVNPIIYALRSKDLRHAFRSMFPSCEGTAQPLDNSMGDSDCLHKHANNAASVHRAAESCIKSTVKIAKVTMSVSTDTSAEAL
Chain of Methionine aminopeptidase 2 (P50579 whole entry): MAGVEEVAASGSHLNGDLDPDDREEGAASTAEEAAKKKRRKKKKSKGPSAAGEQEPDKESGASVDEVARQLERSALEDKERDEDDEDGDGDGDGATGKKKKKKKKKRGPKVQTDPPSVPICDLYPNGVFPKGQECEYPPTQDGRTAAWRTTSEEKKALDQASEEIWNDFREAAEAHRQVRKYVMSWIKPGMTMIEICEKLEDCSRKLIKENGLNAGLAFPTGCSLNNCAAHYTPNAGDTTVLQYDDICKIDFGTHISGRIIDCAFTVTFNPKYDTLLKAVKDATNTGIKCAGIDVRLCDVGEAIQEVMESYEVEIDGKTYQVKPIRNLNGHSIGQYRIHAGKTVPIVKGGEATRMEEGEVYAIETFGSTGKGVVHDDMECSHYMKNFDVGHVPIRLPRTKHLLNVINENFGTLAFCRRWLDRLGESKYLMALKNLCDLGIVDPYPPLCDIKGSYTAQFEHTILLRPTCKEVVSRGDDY
Chain of Alpha-1D adrenergic receptor (P25100 whole entry): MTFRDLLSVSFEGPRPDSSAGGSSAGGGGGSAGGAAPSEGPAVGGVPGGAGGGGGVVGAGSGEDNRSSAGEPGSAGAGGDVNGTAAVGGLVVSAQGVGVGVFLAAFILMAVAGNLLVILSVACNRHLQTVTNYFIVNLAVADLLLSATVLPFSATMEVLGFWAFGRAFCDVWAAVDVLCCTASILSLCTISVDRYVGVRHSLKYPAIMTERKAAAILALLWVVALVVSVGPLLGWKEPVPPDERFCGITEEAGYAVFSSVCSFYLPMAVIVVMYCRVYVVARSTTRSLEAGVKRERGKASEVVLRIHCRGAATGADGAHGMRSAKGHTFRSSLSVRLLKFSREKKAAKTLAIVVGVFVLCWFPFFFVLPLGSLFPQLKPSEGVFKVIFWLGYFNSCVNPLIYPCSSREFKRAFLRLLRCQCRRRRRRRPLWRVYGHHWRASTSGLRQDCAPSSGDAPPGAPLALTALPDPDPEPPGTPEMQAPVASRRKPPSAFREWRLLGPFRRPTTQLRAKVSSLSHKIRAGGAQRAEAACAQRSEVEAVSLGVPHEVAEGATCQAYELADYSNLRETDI

CCC(=O)N1CCOc2c(cc(-c3ccc(OC)c(OC)c3)cc2OC[C@H]2CCCN(C)C2)C1
Kd [1]: 625 nM

CCOc1cn(-c2ccc(F)cc2C)nc1C(=O)Nc1ccc(Oc2ccnc3cc(OC)c(OC)cc23)c(F)c1
IC50 [2]: 5 nM

CC(=O)c1c(NS(C)(=O)=O)c2cc(-c3ccc(Cl)cc3)c(-c3ccc(Cl)cc3Cl)nc2n(C)c1=O [MRL-CB1-NC]
IC50 (Cannabinoid receptor 1): 32.5 nM

C=CC(=O)Nc1ccc2[nH]c(=O)n(C3CCN(C(=O)c4ccc(-c5nc6cc[nH]c(=O)c6cc5-c5ccccc5)cc4)CC3)c2c1
IC50 [3]: 9200 nM

Cn1cncc1[C@@](O)(COc1ccc(C#N)cc1-c1ccc(OC(F)(F)F)cc1)c1ccc(C#N)cc1 [A-108]
IC50 [4]: > 100000 nM

C[C@@]1(Cc2ccc(C#N)cc2)C(=O)N(c2cc(Cl)cc(Cl)c2)c2ncc(C(=O)NC3(c4nc(C5CCC5)no4)CC3)n21 [BI 9446]
Kd (Integrin alpha-L): > 1000 nM

CCC(=N\O)/C(C)=C/c1ccc(F)c(C)c1 [A-226]
IC50 [5]: > 100000 nM

O=C(NCCCN1CCOC1=O)c1cnc(NCc2cc(Br)ccc2Br)nc1NC1CCCC1
Kd [6]: 22 nM

Cc1c(C(=O)O)cc(-c2ccc(C3CCNCC3)cc2)c2ccc(-c3ccc(C(F)(F)F)cc3)cc12
IC50 [7]: 4380 nM

C[C@@H](c1cccc(CN)c1)n1cc(Cl)cc(C(N)=O)c1=N
Ki [8]: 1.6 nM

Cn1nc(C(=O)NCc2ccc(C(=O)O)cc2)cc1-c1ccc2[nH]ccc2c1 [BI 4395]
IC50 (Collagenase 3): > 26000 nM

CN(C)C(=O)c1ccc(-c2cc(C(=O)N(C)C3CCCC3)no2)cc1O
IC50 (Protein AF-9): > 30000 nM
IC50 (Protein ENL): > 30000 nM

CNC(=O)Nc1ccc2c(c1)[C@@]1(CC2)OC(=O)N(CC(=O)N(Cc2ccc(F)cc2)[C@@H](C)C(F)(F)F)C1=O [A-486]
IC50 [9]: > 10000 nM

C[C@H](c1ccc(F)cc1)N(Cc1ccc(Cl)c(C(=O)O)c1)C(=O)c1cnc2ccccc2c1 [PF-05257137]
IC50 [10]: > 10000 nM

Cc1nc(N2CC[C@H](O)C2)ncc1-c1cc(C(F)(F)F)cc2[nH]ncc12
IC50 [11]: 7 nM

Cc1cc(NC(=O)c2cccc(S(F)(F)(F)(F)F)c2)cc(-n2ccn3nc(-c4cccnc4)cc23)c1 [BAY-309]
Kd (Angiopoietin-1 receptor): > 20000 nM

CC1=C(C#N)C(c2ccc3[nH]nc(C)c3c2)C(C#N)=C(C)N1 [BAY-474]
IC50 [12]: < 1 nM
